Test results taken from EPA's ToxValDB 9.5 (doi:10.2903/j.efsa.2015.3943).

What was measured:
[1] = system: Anas platyrhynchos
[2] = system: Canidae; settings: subchronic; duration: 90 days; oral; Dog Other
[3] = system: Colinus virginianus
[4] = system: Mus musculus
[5] = system: Oryctolagus sp.; settings: developmental; development
[6] = system: Rattus norvegicus; settings: oral

CCCCOC(=O)[C@@H](C)Oc1ccc(Oc2ccc(C#N)cc2F)cc1 [Cyhalofop-butyl]
LD50 ([1]; acute, oral, unspecified, mortality): > 2250 mg/kg-day
NOEC ([1]; reproductive, reproduction): 80 mg/kg-day
LC50 ([1]; short-term, oral, feed, mortality): > 5620 mg/kg
NOAEL [2]: 3 mg/kg-day
LC50 ([3]; acute, oral, diet, mortality): > 5620 mg/kg
LD50 ([3]; acute, oral, mortality): > 2250 mg/kg-day
NOEC ([3]; reproduction developmental, reproduction): 80 mg/kg-day
NOAEL ([4]; chronic, duration: 78 weeks): 0.8 mg/kg-day
NOAEL ([4]; subchronic, duration: 90 days, oral): 3 mg/kg-day
NOAEL [5]: 40 mg/kg-day
LD50 ([6]; acute, mortality): > 5000 mg/kg-day
NOAEL ([6]; subchronic, duration: 90 days): 3 mg/kg-day
